# Laboratory results reported in ChEMBL document CHEMBL4043168, “The design and SAR of a novel series of 2-aminopyridine based LRRK2 inhibitors” (Bioorg Med Chem Lett, 2017).
# What was measured:
# [1] = target: Serine/threonine-protein kinase Chk2 (Homo sapiens) (UniProt O96017); assay: Inhibition of CHK2 labeling at conserved Lys1 (VAIKIISK) in human PBMC at 1 uM
# [2] = target: Mitogen-activated protein kinase kinase kinase 1 (Homo sapiens) (UniProt Q13233); assay: Inhibition of MAP3K1 conserved Lys2 (DVKGANLLIDSTGQR) in human PBMC at 1 uM
# Sequence of Mitogen-activated protein kinase kinase kinase 1 (Homo sapiens) (Q13233 whole entry): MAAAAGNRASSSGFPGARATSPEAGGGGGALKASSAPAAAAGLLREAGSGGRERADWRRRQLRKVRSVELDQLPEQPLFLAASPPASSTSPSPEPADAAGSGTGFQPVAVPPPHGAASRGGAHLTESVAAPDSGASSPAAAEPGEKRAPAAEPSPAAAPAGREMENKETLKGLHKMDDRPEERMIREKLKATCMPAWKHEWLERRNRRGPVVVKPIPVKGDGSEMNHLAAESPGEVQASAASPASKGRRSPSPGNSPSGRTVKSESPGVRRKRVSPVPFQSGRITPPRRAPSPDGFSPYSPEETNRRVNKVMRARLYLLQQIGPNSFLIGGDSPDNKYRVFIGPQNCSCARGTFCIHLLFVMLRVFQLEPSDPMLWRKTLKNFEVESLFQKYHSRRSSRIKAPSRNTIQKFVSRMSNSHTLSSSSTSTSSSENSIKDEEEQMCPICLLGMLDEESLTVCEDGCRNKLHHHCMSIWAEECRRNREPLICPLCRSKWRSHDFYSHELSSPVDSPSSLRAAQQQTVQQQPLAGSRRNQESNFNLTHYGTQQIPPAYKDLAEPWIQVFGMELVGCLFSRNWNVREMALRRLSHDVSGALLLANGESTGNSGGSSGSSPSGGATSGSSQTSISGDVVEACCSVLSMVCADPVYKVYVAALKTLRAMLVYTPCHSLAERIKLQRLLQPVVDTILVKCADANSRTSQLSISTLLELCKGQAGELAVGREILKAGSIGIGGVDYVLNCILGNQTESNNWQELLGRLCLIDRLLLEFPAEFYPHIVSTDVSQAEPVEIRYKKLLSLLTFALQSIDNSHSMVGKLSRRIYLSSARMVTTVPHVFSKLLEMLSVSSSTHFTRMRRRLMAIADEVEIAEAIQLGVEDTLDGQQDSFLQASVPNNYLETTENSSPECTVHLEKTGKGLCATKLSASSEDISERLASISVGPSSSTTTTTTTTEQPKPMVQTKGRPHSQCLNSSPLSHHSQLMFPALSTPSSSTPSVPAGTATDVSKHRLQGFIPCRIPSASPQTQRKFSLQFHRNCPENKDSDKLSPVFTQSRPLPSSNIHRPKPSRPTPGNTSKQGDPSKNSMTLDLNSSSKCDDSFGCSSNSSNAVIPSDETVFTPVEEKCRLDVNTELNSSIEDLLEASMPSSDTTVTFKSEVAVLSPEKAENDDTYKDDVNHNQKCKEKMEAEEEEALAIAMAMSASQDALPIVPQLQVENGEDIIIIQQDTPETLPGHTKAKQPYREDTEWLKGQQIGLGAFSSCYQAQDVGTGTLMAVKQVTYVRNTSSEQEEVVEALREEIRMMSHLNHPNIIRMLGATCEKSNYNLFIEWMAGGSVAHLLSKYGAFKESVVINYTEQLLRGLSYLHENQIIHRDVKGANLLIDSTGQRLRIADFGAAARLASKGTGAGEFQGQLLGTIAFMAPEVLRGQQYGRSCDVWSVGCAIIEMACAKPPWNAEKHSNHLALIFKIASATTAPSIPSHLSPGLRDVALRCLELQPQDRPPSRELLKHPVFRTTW
# [3] = target: T1, Mitogen-activated protein kinase kinase kinase 5 (Homo sapiens) (UniProt Q99683); assay: Inhibition of MAP3K5 conserved Lys2 (DIKGDNVLINTYSGVLK) in human PBMC at 1 uM
# T1 sequence (whole entry): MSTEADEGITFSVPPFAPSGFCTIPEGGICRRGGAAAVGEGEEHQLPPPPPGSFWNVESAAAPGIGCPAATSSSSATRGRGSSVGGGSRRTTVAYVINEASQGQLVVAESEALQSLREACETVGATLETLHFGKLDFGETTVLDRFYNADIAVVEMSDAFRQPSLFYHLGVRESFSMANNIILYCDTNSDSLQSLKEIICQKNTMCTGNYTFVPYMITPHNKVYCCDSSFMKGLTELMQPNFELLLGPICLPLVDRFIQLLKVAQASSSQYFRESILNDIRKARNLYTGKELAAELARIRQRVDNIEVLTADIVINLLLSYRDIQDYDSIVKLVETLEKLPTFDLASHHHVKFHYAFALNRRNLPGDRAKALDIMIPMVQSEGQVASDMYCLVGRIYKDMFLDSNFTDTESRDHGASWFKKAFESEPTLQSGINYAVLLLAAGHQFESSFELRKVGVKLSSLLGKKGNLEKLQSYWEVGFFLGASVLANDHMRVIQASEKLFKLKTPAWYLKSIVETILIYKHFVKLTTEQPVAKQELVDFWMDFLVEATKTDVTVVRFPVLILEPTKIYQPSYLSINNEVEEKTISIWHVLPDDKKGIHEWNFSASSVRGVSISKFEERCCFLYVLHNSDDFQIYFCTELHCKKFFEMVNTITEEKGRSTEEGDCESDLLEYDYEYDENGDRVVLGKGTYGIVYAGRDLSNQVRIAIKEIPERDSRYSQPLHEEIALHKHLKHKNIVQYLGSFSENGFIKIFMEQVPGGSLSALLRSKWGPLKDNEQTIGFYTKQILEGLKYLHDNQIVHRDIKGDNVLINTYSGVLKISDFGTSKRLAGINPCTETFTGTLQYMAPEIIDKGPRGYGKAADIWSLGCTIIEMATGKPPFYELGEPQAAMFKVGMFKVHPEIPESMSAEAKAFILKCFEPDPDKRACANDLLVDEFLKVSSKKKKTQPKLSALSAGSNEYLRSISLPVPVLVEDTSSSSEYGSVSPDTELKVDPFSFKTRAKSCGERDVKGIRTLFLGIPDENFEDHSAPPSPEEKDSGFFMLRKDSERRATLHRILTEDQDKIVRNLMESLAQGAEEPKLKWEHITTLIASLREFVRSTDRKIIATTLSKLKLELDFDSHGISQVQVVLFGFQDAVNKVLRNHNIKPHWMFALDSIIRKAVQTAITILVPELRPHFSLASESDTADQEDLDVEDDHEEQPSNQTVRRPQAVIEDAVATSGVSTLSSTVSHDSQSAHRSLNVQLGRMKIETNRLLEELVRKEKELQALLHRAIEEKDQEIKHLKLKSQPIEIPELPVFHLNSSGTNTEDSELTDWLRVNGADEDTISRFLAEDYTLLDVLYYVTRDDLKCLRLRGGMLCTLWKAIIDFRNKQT
# [4] = target: T2, Serine/threonine-protein kinase 4 (Homo sapiens) (UniProt Q13043); assay: Inhibition of MST1 conserved Lys2 (DIKAGNILLNTEGHAK) in human PBMC at 1 uM
# T2 sequence (whole entry): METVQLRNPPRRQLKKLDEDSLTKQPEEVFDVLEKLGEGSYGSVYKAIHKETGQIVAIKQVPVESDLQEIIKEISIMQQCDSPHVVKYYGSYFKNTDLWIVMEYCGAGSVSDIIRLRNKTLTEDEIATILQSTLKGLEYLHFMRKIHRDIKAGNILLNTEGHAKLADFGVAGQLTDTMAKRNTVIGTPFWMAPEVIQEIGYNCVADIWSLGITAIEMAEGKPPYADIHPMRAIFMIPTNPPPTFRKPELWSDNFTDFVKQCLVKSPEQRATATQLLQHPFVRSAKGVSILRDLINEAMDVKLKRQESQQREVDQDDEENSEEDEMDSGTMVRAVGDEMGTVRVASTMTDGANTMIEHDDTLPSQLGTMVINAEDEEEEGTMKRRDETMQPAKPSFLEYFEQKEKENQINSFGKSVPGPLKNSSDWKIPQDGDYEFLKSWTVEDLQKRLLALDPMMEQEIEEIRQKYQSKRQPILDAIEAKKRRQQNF
# [5] = target: Myosin light chain kinase, smooth muscle (Homo sapiens) (UniProt Q15746); assay: Inhibition of smMLCK conserved Lys1 (VWAGKFFK) in human PBMC at 1 uM
# Sequence of Myosin light chain kinase, smooth muscle (Homo sapiens) (Q15746 whole entry): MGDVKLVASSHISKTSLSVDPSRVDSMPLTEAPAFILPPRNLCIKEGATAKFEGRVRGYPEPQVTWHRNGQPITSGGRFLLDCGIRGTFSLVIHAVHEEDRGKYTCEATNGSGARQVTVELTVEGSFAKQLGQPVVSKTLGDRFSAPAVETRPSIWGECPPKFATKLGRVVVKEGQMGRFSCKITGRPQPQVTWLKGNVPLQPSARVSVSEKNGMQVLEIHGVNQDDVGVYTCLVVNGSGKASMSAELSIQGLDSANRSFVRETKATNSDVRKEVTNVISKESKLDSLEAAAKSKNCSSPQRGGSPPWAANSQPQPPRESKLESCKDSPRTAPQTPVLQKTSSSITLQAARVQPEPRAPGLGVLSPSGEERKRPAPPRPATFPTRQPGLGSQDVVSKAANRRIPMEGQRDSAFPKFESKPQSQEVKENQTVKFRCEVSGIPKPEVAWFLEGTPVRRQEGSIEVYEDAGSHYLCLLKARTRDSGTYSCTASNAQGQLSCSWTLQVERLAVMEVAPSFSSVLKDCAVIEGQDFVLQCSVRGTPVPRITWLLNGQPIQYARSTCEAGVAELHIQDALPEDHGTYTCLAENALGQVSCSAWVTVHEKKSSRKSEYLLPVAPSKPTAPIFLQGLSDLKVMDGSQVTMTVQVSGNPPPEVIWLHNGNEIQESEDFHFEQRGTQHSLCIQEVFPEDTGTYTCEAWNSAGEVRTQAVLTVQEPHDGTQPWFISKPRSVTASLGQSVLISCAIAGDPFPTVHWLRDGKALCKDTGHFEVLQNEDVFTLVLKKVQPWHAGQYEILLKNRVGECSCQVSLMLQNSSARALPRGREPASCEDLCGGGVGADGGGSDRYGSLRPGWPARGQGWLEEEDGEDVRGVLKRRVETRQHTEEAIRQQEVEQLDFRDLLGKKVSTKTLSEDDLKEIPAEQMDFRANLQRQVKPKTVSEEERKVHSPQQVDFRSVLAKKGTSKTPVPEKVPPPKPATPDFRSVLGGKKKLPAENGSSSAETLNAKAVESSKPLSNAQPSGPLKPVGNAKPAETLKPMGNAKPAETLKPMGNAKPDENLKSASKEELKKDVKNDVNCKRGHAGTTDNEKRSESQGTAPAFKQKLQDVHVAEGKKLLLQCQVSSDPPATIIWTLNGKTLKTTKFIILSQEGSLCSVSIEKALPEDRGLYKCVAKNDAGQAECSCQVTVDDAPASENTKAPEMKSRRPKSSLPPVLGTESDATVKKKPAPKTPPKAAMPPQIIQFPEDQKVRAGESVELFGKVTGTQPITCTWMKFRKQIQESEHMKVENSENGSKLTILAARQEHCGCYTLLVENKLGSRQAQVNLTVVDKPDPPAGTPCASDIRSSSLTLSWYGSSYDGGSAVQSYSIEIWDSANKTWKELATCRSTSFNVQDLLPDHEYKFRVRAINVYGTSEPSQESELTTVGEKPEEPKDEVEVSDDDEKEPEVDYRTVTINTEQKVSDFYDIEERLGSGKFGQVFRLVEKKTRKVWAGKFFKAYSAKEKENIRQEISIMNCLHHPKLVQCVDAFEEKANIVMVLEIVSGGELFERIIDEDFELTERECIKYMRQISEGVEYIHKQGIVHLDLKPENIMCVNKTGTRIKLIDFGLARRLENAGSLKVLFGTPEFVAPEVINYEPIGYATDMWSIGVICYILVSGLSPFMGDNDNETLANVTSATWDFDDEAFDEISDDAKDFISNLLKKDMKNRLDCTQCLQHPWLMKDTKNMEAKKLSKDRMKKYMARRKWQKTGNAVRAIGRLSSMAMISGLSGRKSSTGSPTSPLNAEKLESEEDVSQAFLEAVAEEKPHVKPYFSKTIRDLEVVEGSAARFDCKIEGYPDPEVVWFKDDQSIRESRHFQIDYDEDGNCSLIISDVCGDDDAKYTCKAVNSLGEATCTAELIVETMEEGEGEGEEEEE
# [6] = target: T3, Inhibitor of nuclear factor kappa-B kinase subunit epsilon (Homo sapiens) (UniProt Q14164); assay: Inhibition of IKKe conserved Lys2 (DIKPGNIMR) in human PBMC at 0.1 uM
# T3 sequence (whole entry): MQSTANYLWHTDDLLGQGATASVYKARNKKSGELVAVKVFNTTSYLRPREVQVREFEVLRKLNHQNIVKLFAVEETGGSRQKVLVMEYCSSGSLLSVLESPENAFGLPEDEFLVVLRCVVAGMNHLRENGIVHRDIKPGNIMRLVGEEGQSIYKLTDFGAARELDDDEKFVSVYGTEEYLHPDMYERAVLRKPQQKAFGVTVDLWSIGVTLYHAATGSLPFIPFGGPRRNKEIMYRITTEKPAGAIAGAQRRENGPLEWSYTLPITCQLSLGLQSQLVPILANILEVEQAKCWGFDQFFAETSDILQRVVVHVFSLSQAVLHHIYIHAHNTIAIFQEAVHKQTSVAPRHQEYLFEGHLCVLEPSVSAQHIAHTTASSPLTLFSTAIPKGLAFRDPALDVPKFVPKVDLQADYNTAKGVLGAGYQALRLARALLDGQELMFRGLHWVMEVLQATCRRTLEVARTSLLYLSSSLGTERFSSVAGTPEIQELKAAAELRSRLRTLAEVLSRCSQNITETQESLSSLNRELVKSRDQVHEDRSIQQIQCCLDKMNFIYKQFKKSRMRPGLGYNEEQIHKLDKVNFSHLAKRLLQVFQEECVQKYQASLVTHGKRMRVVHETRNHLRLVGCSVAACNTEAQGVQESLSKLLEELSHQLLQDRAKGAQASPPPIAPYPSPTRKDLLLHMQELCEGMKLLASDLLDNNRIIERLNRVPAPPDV
# [7] = target: Dual specificity mitogen-activated protein kinase kinase 7 (Homo sapiens) (UniProt O14733); assay: Inhibition of MAP2K7 conserved Lys2 (DVKPSNILLDER) in human PBMC at 0.1 uM
# Sequence of Dual specificity mitogen-activated protein kinase kinase 7 (Homo sapiens) (O14733 whole entry): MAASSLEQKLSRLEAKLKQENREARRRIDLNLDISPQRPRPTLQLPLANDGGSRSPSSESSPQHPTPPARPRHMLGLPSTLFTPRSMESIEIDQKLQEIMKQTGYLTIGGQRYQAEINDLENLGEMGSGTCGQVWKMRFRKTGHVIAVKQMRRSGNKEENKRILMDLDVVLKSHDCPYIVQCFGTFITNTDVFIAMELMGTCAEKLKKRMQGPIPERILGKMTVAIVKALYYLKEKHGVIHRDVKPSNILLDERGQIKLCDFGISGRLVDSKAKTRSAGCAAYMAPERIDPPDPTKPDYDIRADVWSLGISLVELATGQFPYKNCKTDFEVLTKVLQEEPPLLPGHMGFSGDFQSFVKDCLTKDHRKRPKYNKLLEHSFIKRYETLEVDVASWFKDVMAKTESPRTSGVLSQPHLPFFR
# Sequence of Serine/threonine-protein kinase Chk2 (Homo sapiens) (O96017 whole entry): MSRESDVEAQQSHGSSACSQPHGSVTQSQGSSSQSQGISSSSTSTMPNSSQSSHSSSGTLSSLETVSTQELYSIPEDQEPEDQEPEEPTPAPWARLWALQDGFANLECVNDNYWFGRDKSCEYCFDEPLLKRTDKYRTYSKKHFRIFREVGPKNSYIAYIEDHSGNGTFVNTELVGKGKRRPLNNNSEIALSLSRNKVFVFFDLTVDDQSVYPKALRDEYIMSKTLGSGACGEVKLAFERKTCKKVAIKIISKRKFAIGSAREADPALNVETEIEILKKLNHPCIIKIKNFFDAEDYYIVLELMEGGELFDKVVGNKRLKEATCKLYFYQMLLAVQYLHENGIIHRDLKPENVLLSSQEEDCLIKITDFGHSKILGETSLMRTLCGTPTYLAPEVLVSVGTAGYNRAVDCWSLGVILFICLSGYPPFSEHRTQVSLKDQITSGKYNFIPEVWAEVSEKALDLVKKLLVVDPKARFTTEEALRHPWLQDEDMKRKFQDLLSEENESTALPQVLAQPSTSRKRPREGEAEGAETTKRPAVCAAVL
smiles,measurement,setting,value
CC(C)n1cc(-c2cc(-c3ccc(CN4CCOCC4)cc3)cnc2N)nn1,inhibition,[1],9.1%
same,inhibition,[2],83.3%
same,inhibition,[3],25.3%
same,inhibition,[4],0%
same,inhibition,[5],26%
same,inhibition,[6],21.7%
same,inhibition,[7],31.6%
